According to US9950073B2, “Peptide sequence design and use thereof for peptide-mediated siRNA delivery” (Positec Power Tools (Suzhou) Co Ltd, priority 2011, dated 2018):

Test system: siRNA
Test: Fluorescence spectroscopy of peptide-siRNA interaction
Assay type: binding
Experimental: The peptide C6M1 was used in this experiment to study the interaction between peptide and siRNA using fluorescence spectroscopy method. C6M1 has four tryptophan amino acids which can be used as fluorescence probe. […] A blue shift from 355 to 330 nm was also observed in molar ratios of less than 40:1, clearly at 20:1 and 10:1, probably due to the change in the environment of tryptophan by adding more hydrophilic siRNA molecules.
A similar experiment was also performed by tracking the fluorescence property of labeled siRNA, interacting with C6M1. […] The red shift could also be an indicator of a change in the siRNA environment and/or conformational change in siRNA structure upon interacting with peptides.

Question: Which results are given for RLWRLLWRLWRRLWRLLR (C6M1)?
Answer: tryptophan fluorescence intensity of C6M1 on adding siRNA (fixed C6M1 concentration, more siRNA added): intensity of fluorescence decreased; fluorescence spectra of labeled siRNA (low molar ratios of 2:1 and 4:1): no significant change; fluorescence intensity of labeled siRNA (molar ratios of 10:1 and 20:1): intensity decreased; blue shift of fluorescence (molar ratios of less than 40:1, clearly at 20:1 and 10:1): 355 to 330 nm
